Reference: patent US20040116354A1, “Supplementary immunotherapeutics to be used after lung cancer removal” (priority 2001, published 2004)

Columns and labels:
[1] = test system: lung squamous cell carcinoma in the histopathological stage I; experiment: multicenter double blind comparative clinical test, ubenimex preparation vs placebo after complete resection; format: in vivo, human
Protocol: With complete resection patients of lung squamous cell carcinoma in the histopathological stage I, a multicenter double blind comparative test using an ubenimex preparation (containing 30 mg ubenimex) and a placebo preparation (a control contentaining no ubenimex) was carried out. The ubenimex preparation or the placebo preparation was administered orally once a day. The dosing period of these preparations was 2 years after surgical resection. The observation period was 5 years or more including the subsequent period of 3 years or more of no administration after the dosing period. The survival time and recurrence-free survival time in the collected 389 cases (189 cases at the stage IA and 200 cases at the stage IB) were compared between the two groups, namely the ubenimex group and the placebo group by the Kaplan-Meier method. Tables 1 and 2 show the results of the statistic analysis by the generalized Wilcoxon test and the Log-Rank test. […] In these tables, the “U group” means the ubenimex-administered group and the “P group” means the placebo-administered group.

[2] = test system: mice; conditions: 298 mg/kg (i.p.); cited from earlier work
[3] = test system: lung squamous cell carcinoma; conditions: histopathological stage I; 30 mg daily for one year or longer; 21 cases; with or without tegaful; cited from earlier work
[4] = test system: humans; design: dose or concentration left out as unconfirmed; conditions: cited from earlier work
[5] = test system: non-small cell lung cancer; conditions: histopathological stages I and II; 90 mg twice weekly for 5 years; 227 cases; cited from earlier work
[6] = Stage IA (189 cases), 30 mg orally once a day for 2 years
[7] = Stage IB (200 cases), 30 mg orally once a day for 2 years
[8] = total cases stage I (389 cases), 30 mg orally once a day for 2 years after resection, Kaplan-Meier

Compound: CC(C)C[C@H](NC(=O)[C@@H](O)[C@H](N)Cc1ccccc1)C(=O)O [ubenimex, (−)-N-((2S, 3R)-3-amino-2-hydroxy-4-phenylbutyryl)-L-leucine]
- incidence of appetite loss (only adverse effect significantly occurring) ([1]; 30 mg orally once a day for 2 years): 2.5%
- 5-year recurrence-free survival ratio [1, 6]: 73%
- 5-year survival ratio (survival time) [1, 6]: 84%
- 5-year recurrence-free survival ratio [1, 7]: 68%
- 5-year survival ratio (survival time) [1, 7]: 77%
- 5-year recurrence-free survival ratio [1, 8]: 70%
- 5-year survival ratio (survival time) [1, 8]: 81%
- toxicity in mice [2]: no observed toxicity
- survival time vs ubenimex non-administered group [3]: prolonged
- adverse effects in humans [4]: no specific adverse effects observed
- recurrence-free survival time vs non-administered group [5]: favorable trend compared with the non-administered group in terms of recurrence-free survival time but the trend is far from significance
